Patent publication US4918064A, “Phenyl glycines for use in reducing neurotoxic injury” (G. D. Searle & Co., priority 1987, dated 1990)

Columns and labels:
chick embryo retina = assay: In Vitro Chick Retina Assay (excitotoxic lesions by NMDA or KA); format: cell-based; conditions: vs. NMDA 200 μM, 30 min at 37° C.
Source text: [Olney, J. W., Price, M. T., Fuller, T. A., Labruyere, J., Samson, L., Carpenter, M., Mahan, K., "The Anti-Excitotoxic Effects of Certain Anesthetics, Analgesics and Sedative-Hypnotics", Neuroscience Letters, 68, 29-34, (1986)].
Using an approach similar to that earlier described [Reif-Lehrer, L., Bergenthal, J. and Hanninen, L., "Effects of Monosodium Glutamate on Chick Embryo Retina in Culture", Invest. Ophthalmol., 14, 114-12, (1975)], 15-day-old chick embryos were decapitated and their eyes removed and cut into quadrants after excising the cornea and removing the lens, vitreous and iris. The retinal quadrants were then gently separated from the pigment epithelium and incubated for 30 minutes at 37° C. in a standard balanced salt solution (BSS) to which test compounds, either excitatory amino acid agonists or potential antagonists or both, were added in various concentrations. As described elsewhere [Olney, J. W., Price, M. T., Samson, L. and Labruyere, J., "The Role of Specific Ions in Glutamate Neurotoxicity". Neurosci. […]

hippocampal neurons = assay: Hypoxia Survival Assay, cultured hippocampal neurons (MTT); format: cell-based, Sprague-Dawley rat; conditions: 50 μM compound
Protocol: Hippocampal neurons were obtained from embryonic day 17 Sprague-Dawley rats. The brains were removed and the hippocampus dissected, placed in ice-cold Leibovitz L-15 medium, carefully stripped of any remaining meninges, and minced into small pieces using scissors. The tissue was rinsed with calcium-magnesium-free Hanks' Balanced Salt Solution and incubated with 0.25% trypsin (Worthington), 40 μg/ml DNAase (Sigma) for 30 minutes at 36° C. Following incubation, the cells were rinsed with 10% serum-containing medium and dissociated by gentle trituration using a reduced bore diameter Pasteur pipet. […]
The neuronal survival assay utilized the compound MTT [3-(4,5-dimethylthiazol-2-yl)-2,5-diphenyl tetrazolium bromide], a pale yellow substrate that is cleaved by the mitochondrial enzyme succinate-dehydrogenase to yield a dark blue formazan product. […] The precipitate was then solubilized using 0.08N HCl/isopropanol mixture and the absorbance measured with an ELISA plate reader (Dynatech MR600) using a test wavelength of 570 nm and a reference wavelength of 630 nm. […]
The cells were grown for 2-3 weeks in 5% CO2 -in-air humidified environment at 36° C. to establish a thick network of neuronal processes with numerous spontaneously active synapses. […] Following 2 hours of exposure to normal O2 tension, the cultures were processed for morphological and quantitive biochemical neuronal cell viability assays.

NC(C(=O)O)c1ccc(CP(=O)(O)O)cc1 (centres unmarked) [Example VI, 4-(Phosphonomethyl)phenylglycine]
concentration for full antagonism against NMDA (complete prevention of toxic activity) (chick embryo retina): 50 µM
protection of neurons from hypoxic insult (hippocampal neurons): Maximum protection of neurons from hypoxic insult
